# Assay results from patent US9302999B2, “Substituted triazoles as herbicides” (E. I. DU PONT DE NEMOURS AND COMPANY, priority 2012, dated 2016).
# What was measured:
# Type in all cases: in vivo
# [1] = system: speedwell (bird's-eye speedwell, Veronica persica); experiment: Test D pre-/postemergence: speedwell
# Description: (§1) Seeds of plant species selected from bluegrass (annual bluegrass, Poa annua), blackgrass (Alopecurus myosuroides), canarygrass (Phalaris minor), chickweed (common chickweed, Stellaria media), galium (catchweed bedstraw, Galium aparine), bromegrass, downy (downy bromegrass, Bromus tectorum), field poppy (Papaver rhoeas), field violet (Viola arvensis), foxtail, green (green foxtail, Setaria viridis), deadnettle (henbit deadnettle, Lamium amplexicaule), ryegrass, Italian (Italian ryegrass, Lolium multiflorum), kochia (Kochia scoparia), lambsquarters (Chenopodium album), oilseed rape (Brassica napus), pigweed (Amaranthus retroflexus), Russian thistle (Salsola iberica), chamomile (scentless chamomile, Matricaria inodora), speedwell (bird's-eye speedwell, Veronica persica), barley, spring (spring barley, Hordeum vulgare), wheat, spring (spring wheat, Triticum aestivum), buckwheat, wild (wild buckwheat, Polygonum convolvulus), mustard, wild (wild mustard, Sinapis arvensis), oat, wild (wild oat, Avena fatua), radish, wild (wild radish, Raphanus raphanistrum), windgrass (Apera spica-venti), barley, winter (winter barley, Hordeum vulgare), and wheat, winter (winter wheat, Triticum aestivum) were planted into a silt loam soil and treated preemergence with test chemicals formulated in a non-phytotoxic solvent mixture which included a surfactant. At the same time, these same crop and weed species were planted in pots containing the planting medium comprising spaghnum peat moss, vermiculite, wetting agent and starter nutrients and treated with postemergence applications of the test chemicals formulated in the same manner. Plants ranged in height from 2 to 18 cm (1- to 4-leaf stage).
# (§2) Treated plants and controls were maintained in a controlled growth environment for 14 to 21 days after which time all species were compared to controls and visually evaluated. Plant response ratings, summarized in Table D, are based on a scale of 0 to 100 where 0 is no effect and 100 is complete control. A dash (-) response means no test result.
# [2] = system: canarygrass (Phalaris minor); experiment: Test D pre-/postemergence: canarygrass
# Description: as §1, §2
# [3] = system: bromegrass, downy (downy bromegrass, Bromus tectorum); experiment: Test D pre-/postemergence: bromegrass, downy
# Description: as §1, §2
# [4] = Postemergence, 31 g ai/ha, scale 0 to 100 (0 no effect, 100 complete control)
# [5] = Postemergence, 62 g ai/ha, scale 0 to 100 (0 no effect, 100 complete control)
# [6] = Postemergence, 125 g ai/ha, scale 0 to 100, 0 no effect, 100 complete control
# [7] = Postemergence, 250 g ai/ha, scale 0 to 100 (0 no effect, 100 complete control)
# [8] = Preemergence, 31 g ai/ha, scale 0 to 100, 0 no effect, 100 complete control
# [9] = Preemergence, 62 g ai/ha, scale 0 to 100
# [10] = Preemergence, 125 g ai/ha, scale 0 to 100
# [11] = Preemergence, 250 g ai/ha, scale 0 to 100
# [12] = Postemergence, 16 g ai/ha, scale 0 to 100
# [13] = Preemergence, 16 g ai/ha, scale 0 to 100, 0 no effect, 100 complete control
SMILES,"Plant response rating: Speedwell [1, 4]","Plant response rating: Speedwell [1, 5]","Plant response rating: Speedwell [1, 6]","Plant response rating: Speedwell [1, 7]","Plant response rating: Canarygrass [2, 4]","Plant response rating: Canarygrass [2, 5]","Plant response rating: Canarygrass [2, 6]","Plant response rating: Canarygrass [2, 7]","Plant response rating, Canarygrass [2, 8]","Plant response rating, Canarygrass [2, 9]","Plant response rating, Canarygrass [2, 10]","Plant response rating: Bromegrass, Downy [3, 4]","Plant response rating: Bromegrass, Downy [3, 5]","Plant response rating: Bromegrass, Downy [3, 6]","Plant response rating: Bromegrass, Downy [3, 7]","Plant response rating, Bromegrass, Downy [3, 8]","Plant response rating, Bromegrass, Downy [3, 9]","Plant response rating, Bromegrass, Downy [3, 10]","Plant response rating, Canarygrass [2, 12]","Plant response rating, Bromegrass, Downy [3, 12]",further results
"FC(F)(F)COc1nn(-c2ccc(C(F)(F)F)cc2)nc1Cc1ccnc(C(F)(F)F)c1 [Compound 14, 4-[[5-(2,2,2-trifluoroethoxy)-2-[4-(trifluoromethyl)phenyl]-2H-1,2,3-triazol-4-yl]methyl]-2-(trifluoromethyl)pyridine]",100,100,100,100,25,40,55,80,10,25,90,15,20,30,40,0,10,20,,,"Plant response rating, Speedwell [1, 8]: 100; Plant response rating, Speedwell [1, 9]: 100; Plant response rating, Speedwell [1, 10]: 100; Plant response rating, Speedwell [1, 11]: 100; Plant response rating, Canarygrass [2, 11]: 98; Plant response rating, Bromegrass, Downy [3, 11]: 30"
"COc1nn(-c2ccc(C(F)(F)F)cc2)nc1Cc1ccnc(C(F)(F)F)c1 [Compound 15, 4-[[5-methoxy-2-[4-(trifluoromethyl)phenyl]-2H-1,2,3-triazol-4-yl]methyl]-2-(trifluoromethyl)pyridine]",100,100,100,100,35,40,50,80,25,80,90,10,10,20,40,0,0,0,25,5,"Plant response rating, Speedwell [1, 12]: 100; Plant response rating, Canarygrass [2, 11]: 100; Plant response rating, Bromegrass, Downy [3, 11]: 40"
Cc1nn(-c2ccc(C(F)(F)F)cn2)nc1Oc1ccnc(C(F)(F)F)c1 [Compound 23],10,20,50,60,15,20,25,30,,,,10,15,20,25,,,,10,0,"Plant response rating, Speedwell [1, 12]: 5"
Cc1nn(-c2ccc(C(F)(F)F)cn2)nc1Cc1cccc(C(F)(F)F)c1 [Compound 106],0,0,90,90,5,10,20,30,0,0,0,0,10,15,15,0,0,0,5,0,"Plant response rating, Speedwell [1, 12]: 0; Plant response rating, Canarygrass [2, 11]: 0; Plant response rating, Bromegrass, Downy [3, 11]: 0"
Cc1nn(-c2ccc(C(F)(F)F)cc2)nc1Oc1ccnc(C(F)(F)F)c1 [Compound 120],100,100,100,100,5,20,90,95,90,100,100,10,10,20,25,0,5,25,0,5,"Plant response rating, Speedwell [1, 12]: 60; Plant response rating, Speedwell [1, 13]: 0; Plant response rating, Canarygrass [2, 13]: 0; Plant response rating, Canarygrass [2, 11]: 100; Plant response rating, Bromegrass, Downy [3, 13]: 0; Plant response rating, Bromegrass, Downy [3, 11]: 60"
COc1nn(-c2ccc(C(F)(F)F)cc2)nc1Cc1ccnc(C(F)F)c1 [Compound 138],80,90,98,100,25,30,50,80,,,,20,30,40,50,,,,10,10,"Plant response rating, Speedwell [1, 12]: 80"
Cc1nn(-c2ccc(F)c(C(F)(F)F)c2)nc1Cc1ccnc(C(F)(F)F)c1 [Compound 156],,,,,30,65,80,,70,100,100,10,15,35,,5,20,95,15,10,"Plant response rating, Speedwell [1, 13]: 10; Plant response rating, Speedwell [1, 8]: 100; Plant response rating, Speedwell [1, 9]: 100; Plant response rating, Speedwell [1, 10]: 100; Plant response rating, Canarygrass [2, 13]: 15; Plant response rating, Bromegrass, Downy [3, 13]: 0"
